Measurements from patent US20240209028A1, “CNP COMPOUNDS” (priority 2022, published 2024).
Starred links: 1 amine or outer side, 2 acyl side, 3 side chain; linkers in the order of their positions; H or OH if unused. Positions of bridges follow the written chain, without caps; N, C: chain ends. Residues, ends and D or L forms follow the SMILES beside them. *: point of attachment. C18 diacid = O=C(O)CCCCCCCCCCCCCCCCC(=O)*; γGlu = O=C(O)[C@H](CCC(=O)[*:2])N[*:1]; AEEA = NCCOCCOCC(=O)O

Target: T1, human natriuretic peptide receptor 2 (hNPR2) (Homo sapiens, UniProt P20594)
T1 construct: expressed in transfected cells; host or cells: HEK293 (ATCC CRL-1573), clone 35, co-transfected with pGloSensor-42F
T1 sequence (P20594 23-1047): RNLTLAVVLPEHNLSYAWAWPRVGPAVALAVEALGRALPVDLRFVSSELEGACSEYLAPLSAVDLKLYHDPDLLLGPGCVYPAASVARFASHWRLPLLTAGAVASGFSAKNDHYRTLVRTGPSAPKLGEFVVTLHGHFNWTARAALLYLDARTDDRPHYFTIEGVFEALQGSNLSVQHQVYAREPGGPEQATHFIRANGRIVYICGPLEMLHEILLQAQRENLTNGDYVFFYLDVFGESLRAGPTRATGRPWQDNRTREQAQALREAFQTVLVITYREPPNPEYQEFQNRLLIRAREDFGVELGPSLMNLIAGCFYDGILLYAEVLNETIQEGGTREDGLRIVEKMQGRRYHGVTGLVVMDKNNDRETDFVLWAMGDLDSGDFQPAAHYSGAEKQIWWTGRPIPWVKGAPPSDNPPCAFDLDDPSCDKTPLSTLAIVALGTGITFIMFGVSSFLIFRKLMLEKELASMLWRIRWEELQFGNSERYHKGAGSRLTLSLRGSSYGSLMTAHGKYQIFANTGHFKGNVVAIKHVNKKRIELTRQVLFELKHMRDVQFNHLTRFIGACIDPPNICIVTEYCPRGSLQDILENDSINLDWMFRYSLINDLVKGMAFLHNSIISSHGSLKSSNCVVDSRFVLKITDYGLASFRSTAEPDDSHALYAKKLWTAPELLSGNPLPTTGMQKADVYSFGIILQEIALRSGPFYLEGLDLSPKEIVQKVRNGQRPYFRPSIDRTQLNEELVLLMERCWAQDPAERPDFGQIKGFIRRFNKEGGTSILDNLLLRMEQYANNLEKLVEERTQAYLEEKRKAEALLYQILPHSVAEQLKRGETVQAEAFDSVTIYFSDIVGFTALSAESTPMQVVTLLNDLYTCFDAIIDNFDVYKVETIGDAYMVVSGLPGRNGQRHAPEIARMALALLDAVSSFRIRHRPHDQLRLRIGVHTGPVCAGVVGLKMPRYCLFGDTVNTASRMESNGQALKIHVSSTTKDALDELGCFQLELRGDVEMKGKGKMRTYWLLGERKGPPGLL
Assay: In vitro hNPR2 activity assay (cGMP GloSensor reporter, HEK293)
Assay type: cell-based
Settings: for hNPR2 0% HSA. [EC50% rel CNP]: potency relative to CNP22 (0065); for EC50: 0% HSA, HEK293-hNPR2/GloSensor cells
How it was run: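 Potency is the EC50 from a four-parameter logistic fit, also expressed relative to the in-plate CNP22 control (×100), with at least two replicates. Compounds (ten concentrations, […], HSA-free diluent with 1% OVA, 0.01% Tween20) were incubated 30 min at 37 °C on HEK293 cells co-expressing hNPR2 and a GloSensor cGMP luciferase. Luminescence detected with Bright-Glo.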

## CC[C@H](C)[C@@H]1NC(=O)[C@H](CCCNC(=N)N)NC(=O)[C@H](CC(=O)O)NC(=O)[C@H](CC(C)C)NC(=O)[C@@H]2CCCN2C(=O)[C@H](CC(C)C)NC(=O)CNC(=O)[C@H](Cc2ccccc2)NC(=O)[C@@H](NC(=O)CNC(=O)[C@H](CCC(N)=O)NC(=O)[C@H](CO)NC(=O)[C@H](CC(C)C)NC(=O)CNC(=O)[C@H](CCCCN)NC(=O)[C@H](CCCCN)NC(=O)[C@H](CCC(N)=O)NC(=O)[C@H](C)NC(=O)CNC(=O)[C@H](CCCCN)NC(=O)[C@H](Cc2ccc(O)cc2)NC(=O)COCCOCCNC(=O)COCCOCCNC(=O)COCCOCCNC(=O)COCCOCCNC(=O)CC[C@H](NC(=O)CC[C@H](NC(=O)CC[C@H](NC(=O)CCCCCCCCCCCCCCCCC(=O)O)C(=O)O)C(=O)O)C(=O)O)CSSC[C@@H](C(=O)O)NC(=O)CNC(=O)[C@H](CC(C)C)NC(=O)CNC(=O)[C@H](CO)NC(=O)[C@H](CC(C)C)NC(=O)[C@H](CO)NC(=O)CNC1=O [compound 9480] ({C18 diacid-γGlu-γGlu-γGlu-AEEA-AEEA-AEEA-AEEA}-YKGAQKKGLSQGCFGLPLDRIGSLSGLGC-OH; disulfide 13-29)
  hNPR2 0% HSA. [EC50% rel CNP]: 45.2%

## CC[C@H](C)[C@@H]1NC(=O)[C@H](CCCNC(=N)N)NC(=O)[C@H](CC(=O)O)NC(=O)[C@H](CC(C)C)NC(=O)[C@@H]2CCCN2C(=O)[C@H](CC(C)C)NC(=O)CNC(=O)[C@H](Cc2ccccc2)NC(=O)[C@@H](NC(=O)CNC(=O)[C@H](CCCCN)NC(=O)[C@H](CO)NC(=O)[C@H](CC(C)C)NC(=O)CNC(=O)[C@H](CCCCN)NC(=O)[C@H](CCCCN)NC(=O)[C@H](CCC(N)=O)NC(=O)[C@H](C)NC(=O)CNC(=O)[C@H](CCCCN)NC(=O)[C@H](Cc2ccc(O)cc2)NC(=O)[C@H](CCCCN)NC(=O)[C@H](CCCNC(=N)N)NC(=O)[C@H](C)NC(=O)COCCOCCNC(=O)COCCOCCNC(=O)CC[C@H](NC(=O)CC[C@H](NC(=O)CC[C@H](NC(=O)CC[C@H](NC(=O)CC[C@H](NC(=O)CCCCCCCCCCCCCCCCC(=O)O)C(=O)O)C(=O)O)C(=O)O)C(=O)O)C(=O)O)CSSC[C@@H](C(=O)O)NC(=O)CNC(=O)[C@H](CC(C)C)NC(=O)CNC(=O)[C@H](CO)NC(=O)[C@H](CC(C)C)NC(=O)[C@H](CO)NC(=O)CNC1=O [compound 1470] ({C18 diacid-γGlu-γGlu-γGlu-γGlu-γGlu-AEEA-AEEA}-ARKYKGAQKKGLSKGCFGLPLDRIGSLSGLGC-OH; disulfide 16-32)
  hNPR2 0% HSA. [EC50% rel CNP]: 23.9%

## CC[C@H](C)[C@@H]1NC(=O)[C@H](CCCNC(=N)N)NC(=O)[C@H](CC(=O)O)NC(=O)[C@H](CC(C)C)NC(=O)[C@@H]2CCCN2C(=O)[C@H](CC(C)C)NC(=O)CNC(=O)[C@H](Cc2ccccc2)NC(=O)[C@@H](NC(=O)CNC(=O)[C@H](CO)NC(=O)[C@H](CO)NC(=O)[C@H](CC(C)C)NC(=O)CNC(=O)[C@H](CCCCN)NC(=O)[C@H](CCCCN)NC(=O)[C@H](CCC(N)=O)NC(=O)[C@H](C)NC(=O)CNC(=O)[C@H](Cc2c[nH]cn2)NC(=O)[C@H](Cc2ccc(O)cc2)NC(=O)COCCOCCNC(=O)COCCOCCNC(=O)CC[C@H](NC(=O)CCCCCCCCCCCCCCCCC(=O)O)C(=O)O)CSSC[C@@H](C(=O)O)NC(=O)CNC(=O)[C@H](CC(C)C)NC(=O)CNC(=O)[C@H](CO)NC(=O)[C@H](CC(C)C)NC(=O)[C@H](CO)NC(=O)CNC1=O [compound 1241] ({C18 diacid-γGlu-AEEA-AEEA}-YHGAQKKGLSSGCFGLPLDRIGSLSGLGC-OH; disulfide 13-29)
  hNPR2 0% HSA. [EC50% rel CNP]: 30.5%

## CC[C@H](C)[C@@H]1NC(=O)[C@H](CCCNC(=N)N)NC(=O)[C@H](CC(=O)O)NC(=O)[C@H](CC(C)C)NC(=O)[C@@H]2CCCN2C(=O)[C@H](CC(C)C)NC(=O)CNC(=O)[C@H](Cc2ccccc2)NC(=O)[C@@H](NC(=O)CNC(=O)[C@H](CCCCN)NC(=O)[C@H](CO)NC(=O)[C@H](CC(C)C)NC(=O)CNC(=O)[C@H](CCCCN)NC(=O)[C@H](CCCCN)NC(=O)[C@H](CCC(N)=O)NC(=O)[C@H](C)NC(=O)CNC(=O)[C@H](CCC(=O)O)NC(=O)[C@H](Cc2ccc(O)cc2)NC(=O)COCCOCCNC(=O)COCCOCCNC(=O)CC[C@H](NC(=O)CCCCCCCCCCCCCCCCC(=O)O)C(=O)O)CSSC[C@@H](C(=O)O)NC(=O)CNC(=O)[C@H](CC(C)C)NC(=O)CNC(=O)[C@H](CO)NC(=O)[C@H](CC(C)C)NC(=O)[C@H](CO)NC(=O)CNC1=O [compound 1225] ({C18 diacid-γGlu-AEEA-AEEA}-YEGAQKKGLSKGCFGLPLDRIGSLSGLGC-OH; disulfide 13-29)
  hNPR2 0% HSA. [EC50% rel CNP]: 29.4%

## CC[C@H](C)[C@@H]1NC(=O)[C@H](CCCNC(=N)N)NC(=O)[C@H](CCC(=O)O)NC(=O)[C@H](CC(C)C)NC(=O)[C@H](CCCCN)NC(=O)[C@H](CC(C)C)NC(=O)CNC(=O)[C@H](Cc2ccccc2)NC(=O)[C@@H](NC(=O)CNC(=O)[C@H](CCCCN)NC(=O)[C@H](CO)NC(=O)[C@H](CC(C)C)NC(=O)CNC(=O)[C@H](CCCCN)NC(=O)[C@H](CCCCN)NC(=O)[C@H](CCC(N)=O)NC(=O)[C@H](C)NC(=O)CNC(=O)[C@H](CCCCN)NC(=O)[C@H](Cc2ccc(O)cc2)NC(=O)[C@H](CCCCN)NC(=O)[C@H](CCCNC(=N)N)NC(=O)[C@H](C)NC(=O)COCCOCCNC(=O)COCCOCCNC(=O)CC[C@H](NC(=O)CCCCCCCCCCCCCCCCC(=O)O)C(=O)O)CSSC[C@@H](C(=O)O)NC(=O)CNC(=O)[C@H](CC(C)C)NC(=O)CNC(=O)[C@H](CO)NC(=O)[C@H](CC(C)C)NC(=O)[C@H](CO)NC(=O)CNC1=O [compound 0776] ({C18 diacid-γGlu-AEEA-AEEA}-ARKYKGAQKKGLSKGCFGLKLERIGSLSGLGC-OH; disulfide 16-32)
  EC50: 0.58 nM
  hNPR2 0% HSA. [EC50% rel CNP]: 33.2%

## CC[C@H](C)[C@@H]1NC(=O)[C@H](CCCNC(=N)N)NC(=O)[C@H](CC(=O)O)NC(=O)[C@H](CC(C)C)NC(=O)[C@@H]2CCCN2C(=O)[C@H](CC(C)C)NC(=O)CNC(=O)[C@H](Cc2ccccc2)NC(=O)[C@@H](NC(=O)CNC(=O)[C@H](CCCCN)NC(=O)[C@H](CO)NC(=O)CNC(=O)CNC(=O)[C@H](CCCCN)NC(=O)[C@H](CCCCN)NC(=O)[C@H](CCC(N)=O)NC(=O)[C@H](C)NC(=O)CNC(=O)[C@H](CCC(=O)O)NC(=O)[C@H](Cc2ccc(O)cc2)NC(=O)COCCOCCNC(=O)COCCOCCNC(=O)CC[C@H](NC(=O)CCCCCCCCCCCCCCCCC(=O)O)C(=O)O)CSSC[C@@H](C(=O)O)NC(=O)CNC(=O)[C@H](CC(C)C)NC(=O)CNC(=O)[C@H](CO)NC(=O)[C@H](CC(C)C)NC(=O)[C@H](CO)NC(=O)CNC1=O [compound 1377] ({C18 diacid-γGlu-AEEA-AEEA}-YEGAQKKGGSKGCFGLPLDRIGSLSGLGC-OH; disulfide 13-29)
  hNPR2 0% HSA. [EC50% rel CNP]: 28.2%

## CC[C@H](C)[C@@H]1NC(=O)[C@H](CCCNC(=N)N)NC(=O)[C@H](CC(=O)O)NC(=O)[C@H](CC(C)C)NC(=O)[C@H](CCCCN)NC(=O)[C@H](CC(C)C)NC(=O)CNC(=O)[C@H](Cc2ccccc2)NC(=O)[C@@H](NC(=O)CNC(=O)[C@H](CCCCN)NC(=O)[C@H](CO)NC(=O)[C@H](CC(C)C)NC(=O)CNC(=O)[C@H](CCCCN)NC(=O)[C@H](CCCCN)NC(=O)[C@H](CCC(N)=O)NC(=O)[C@H](C)NC(=O)CNC(=O)[C@H](Cc2c[nH]cn2)NC(=O)[C@H](CCC(=O)O)NC(=O)COCCOCCNC(=O)COCCOCCNC(=O)CC[C@H](NC(=O)CCCCCCCCCCCCCCCCC(=O)O)C(=O)O)CSSC[C@@H](C(=O)O)NC(=O)CNC(=O)[C@H](CC(C)C)NC(=O)CNC(=O)[C@H](CO)NC(=O)[C@H](CC(C)C)NC(=O)[C@H](CO)NC(=O)CNC1=O [compound 1235]
  EC50: 1.17 nM
  hNPR2 0% HSA. [EC50% rel CNP]: 27.2%
